The values that follow come from ChEMBL document CHEMBL3860030, “Design, synthesis and biological evaluation of novel macrocyclic bisbibenzyl analogues as tubulin polymerization inhibitors” (Eur J Med Chem, 2016).

What is called IC50 is the concentration that gives 50% inhibition.

Assay [1] is filed under the species Bos taurus. Kind of assay: Induction of bovine brain tubulin polymerization at 5 uM measured every minute for 1 hr by spectrophotometric method.
The subject of the next assay is HCC1428. The experiment in a line: Cytotoxicity against human HCC1428 cells assessed as decrease in cell viability at 1 uM after 60 hrs by xCELLigence system. It is filed as functional, cell-based.
The species entered for assay [2] is Bos taurus. Kind of assay: Inhibition of bovine brain tubulin polymerization at 5 uM measured every minute for 1 hr by spectrophotometric method.
Assay [3] is described as follows: Cytotoxicity against human HCC1428 cells assessed as decrease in cell viability after 48 hrs by MTT assay. The assay is classed as functional, cell-based. The conditions noted are these: HCC1428, 48 h. In general terms: Tetrazolium dyes change colour on reduction, which living cells bring about.
Assay [4] in a line: Cytotoxicity against human HT-29 cells assessed as decrease in cell viability after 48 hrs by MTT assay. It is filed as functional, cell-based. The conditions noted are these: HT-29, 48 h.
Assay [5] in a line: Cytotoxicity against docetaxel-resistant human PC3 cells assessed as decrease in cell viability after 48 hrs by MTT assay. The assay is classed as functional, cell-based. The conditions noted are these: PC-3, 48 h.
The nature of the next assay: cells. As to conditions: Homo sapiens, HeLa, 48 h.

Where a name gives a salt, the structure may show the parent alone. Active and inactive are the calls of the source. No cut-off for these calls is given here.

Description for cells: Cytotoxicity against human HeLa cells assessed as decrease in cell viability after 48 hrs by MTT assay

Consider `CC(=O)O[C@H]1C(=O)[C@@]2(C)[C@H]([C@H](OC(=O)c3ccccc3)[C@]3(O)C[C@H](OC(=O)[C@H](O)[C@@H](NC(=O)c4ccccc4)c4ccccc4)C(C)=C1C3(C)C)[C@]1(OC(C)=O)CO[C@@H]1C[C@@H]2O`, for which the outcome in the assay filed under Bos taurus [1] was Active.

For `CC[C@]1(O)C[C@H]2CN(CCc3c([nH]c4ccccc34)[C@@](C(=O)OC)(c3cc4c(cc3OC)N(C=O)[C@H]3[C@@](O)(C(=O)OC)[C@H](OC(C)=O)[C@]5(CC)C=CCN6CC[C@]43[C@@H]65)C2)C1`, the result with HCC1428 was Active. Also, in the assay filed under Bos taurus [2], the inhibition entry is “Active”.

`COc1cccc2c1C(=O)c1c(O)c3c(c(O)c1C2=O)C[C@@](O)(C(=O)CO)C[C@@H]3O[C@H]1C[C@H](N)[C@H](O)[C@H](C)O1` [DOXORUBICIN HYDROCHLORIDE]: the IC50 in assay [3] was 1560 nM; in assay [4] it was 1460 nM; in assay [5], 15200 nM; in the assay “cells”, 1060 nM.
